Reference: ChEMBL document CHEMBL1201862, “PubChem BioAssay data set” (2004)
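Grown in 96-well plates, cells were treated for 48 hours with each compound at five concentrations. Insufficient inhibition: endpoint recorded as highest concentration tested. GI50 marks 50% less growth.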 Activity calls are given as the source filed them. Cut-off read from the data, not from the text of the source: active = GI50 up to about 1.1 µM and inactive = higher.

Key:
Experiment in all cases: NCI tumour cell line growth inhibition, 48 h
HL-60 = tested on: HL-60
A498 = tested on: A498
NCI-H23 = tested on: NCI-H23
PC-3 = tested on: PC-3
MCF7 = tested on: MCF7
NCI-H226 = tested on: NCI-H226
SK-OV-3 = tested on: SK-OV-3
SF-295 = tested on: SF-295
SF-268 = tested on: SF-268
CAKI-1 = tested on: CAKI-1
SK-MEL-5 = tested on: SK-MEL-5
Hs-578T = tested on: Hs-578T
LOX IMVI = tested on: LOX IMVI
SK-MEL-28 = tested on: SK-MEL-28
SF-539 = tested on: SF-539
NCI-H460 = tested on: NCI-H460

| SMILES | GI50 (HL-60) | GI50 (A498) | GI50 (NCI-H23) | GI50 (PC-3) | GI50 (MCF7) | GI50 (NCI-H226) | GI50 (SK-OV-3) | GI50 (SF-295) | GI50 (SF-268) | GI50 (CAKI-1) | GI50 (SK-MEL-5) | GI50 (Hs-578T) | GI50 (LOX IMVI) | GI50 (SK-MEL-28) | GI50 (SF-539) | GI50 (NCI-H460) |
| --- | --- | --- | --- | --- | --- | --- | --- | --- | --- | --- | --- | --- | --- | --- | --- | --- |
| CCC1c2[nH]c3ccccc3c2C[C@H]2C(=O)NC(C)C(=O)N12 (stereo not given in full) | > 100 µM (inactive) | > 100 µM (inactive) | > 100 µM (inactive) | > 100 µM (inactive) | > 100 µM (inactive) | > 100 µM (inactive) | > 100 µM (inactive) | > 100 µM (inactive) | > 100 µM (inactive) | > 100 µM (inactive) | > 100 µM (inactive) | > 100 µM (inactive) | > 100 µM (inactive) | > 100 µM (inactive) | – | – |
| CC(O)c1cc2c(s1)C(=O)c1ccsc1C2=O (stereo not given) | 0.0144 µM (active) | 1.53 µM (inactive) | 0.0169 µM (active) | 0.0632 µM (active) | 0.0457 µM (active) | 0.48 µM (active) | 2.7 µM (inactive) | 0.0467 µM (active) | 0.162 µM (active) | 0.695 µM (active) | < 0.0122 µM (active) | 0.107 µM (active) | 0.0125 µM (active) | 0.0216 µM (active) | 0.0509 µM (active) | – |
| O=C(NC(C(F)(F)F)(C(F)(F)F)P(=O)(Cc1ccccc1)Cc1ccccc1)C(C(F)(F)F)C(F)(F)F | 22.4 µM (inactive) | 17.3 µM (inactive) | 19.7 µM (inactive) | 21.5 µM (inactive) | 12.2 µM (inactive) | 13.4 µM (inactive) | 31.8 µM (inactive) | 20.7 µM (inactive) | 23.3 µM (inactive) | 52.4 µM (inactive) | 15.4 µM (inactive) | 55.7 µM (inactive) | 18.1 µM (inactive) | 25.6 µM (inactive) | 20.7 µM (inactive) | 27.7 µM (inactive) |
| Fc1ccc(Oc2nc3ccccc3nc2-c2ccccc2)cc1 | 13.9 µM (inactive) | > 100 µM (inactive) | 42.5 µM (inactive) | > 100 µM (inactive) | > 100 µM (inactive) | > 100 µM (inactive) | > 100 µM (inactive) | > 100 µM (inactive) | > 100 µM (inactive) | > 100 µM (inactive) | > 100 µM (inactive) | 94.4 µM (inactive) | > 100 µM (inactive) | > 100 µM (inactive) | – | > 100 µM (inactive) |
| CC(=O)OCC1OC(n2c3c(cc(C#N)c2=S)CCCCC3)C(OC(C)=O)C(OC(C)=O)C1OC(C)=O (stereo not given) | > 100 µM (inactive) | > 100 µM (inactive) | > 100 µM (inactive) | > 100 µM (inactive) | > 100 µM (inactive) | > 100 µM (inactive) | – | > 100 µM (inactive) | > 100 µM (inactive) | > 100 µM (inactive) | > 100 µM (inactive) | > 100 µM (inactive) | > 100 µM (inactive) | > 100 µM (inactive) | > 100 µM (inactive) | > 100 µM (inactive) |
| CS(=O)(=O)OCC1CCCCCCCCCCC12SCCCS2 (stereo not given) | > 100 µM (inactive) | > 100 µM (inactive) | > 100 µM (inactive) | > 100 µM (inactive) | > 100 µM (inactive) | > 100 µM (inactive) | > 100 µM (inactive) | > 100 µM (inactive) | > 100 µM (inactive) | > 100 µM (inactive) | > 100 µM (inactive) | > 100 µM (inactive) | > 100 µM (inactive) | > 100 µM (inactive) | > 100 µM (inactive) | > 100 µM (inactive) |
| Fc1cccc(C2SCC3=Nc4ccccc4CN32)c1 (stereo not given) | 35.1 µM (inactive) | > 100 µM (inactive) | 20.8 µM (inactive) | 28.2 µM (inactive) | 35.4 µM (inactive) | – | 39.6 µM (inactive) | 26.6 µM (inactive) | 67.1 µM (inactive) | > 100 µM (inactive) | 17.9 µM (inactive) | > 10 µM (inactive) | 40.6 µM (inactive) | 98.6 µM (inactive) | 47.5 µM (inactive) | 37.9 µM (inactive) |
| Cc1cccc2c(N)c3cccc(C(=O)NCCN4CCOCC4)c3nc12 | 0.362 µM (active) | 1.31 µM (inactive) | 0.33 µM (active) | 0.436 µM (active) | 0.265 µM (active) | – | 1.05 µM (active) | 0.318 µM (active) | 0.0603 µM (active) | 0.675 µM (active) | 0.853 µM (active) | 0.0849 µM (active) | 0.23 µM (active) | 1.45 µM (inactive) | 0.171 µM (active) | 0.605 µM (active) |
| CC#CC#C/C(=C/C=CC(=O)OC)SC | > 100 µM (inactive) | > 100 µM (inactive) | – | > 100 µM (inactive) | > 100 µM (inactive) | > 100 µM (inactive) | > 100 µM (inactive) | > 100 µM (inactive) | > 100 µM (inactive) | > 100 µM (inactive) | > 100 µM (inactive) | > 100 µM (inactive) | > 100 µM (inactive) | > 100 µM (inactive) | > 100 µM (inactive) | > 100 µM (inactive) |
| Cc1ccc(CC(Cc2ccccc2C)C(=O)O)c(C(=O)O)c1 (stereo not given) | > 100 µM (inactive) | > 100 µM (inactive) | > 100 µM (inactive) | > 100 µM (inactive) | > 100 µM (inactive) | > 100 µM (inactive) | – | > 100 µM (inactive) | > 100 µM (inactive) | > 100 µM (inactive) | > 100 µM (inactive) | > 100 µM (inactive) | > 100 µM (inactive) | > 100 µM (inactive) | > 100 µM (inactive) | > 100 µM (inactive) |
| O=C(O)CCC(=O)Nc1ccc2c(c1)S(=O)(=O)N(CC(=O)O)C2=O | > 100 µM (inactive) | > 100 µM (inactive) | > 100 µM (inactive) | > 100 µM (inactive) | > 100 µM (inactive) | > 100 µM (inactive) | > 100 µM (inactive) | > 100 µM (inactive) | – | > 100 µM (inactive) | > 100 µM (inactive) | > 100 µM (inactive) | > 100 µM (inactive) | > 100 µM (inactive) | > 100 µM (inactive) | > 100 µM (inactive) |
| CC(O[Si](c1ccccc1)(c1ccccc1)C(C)(C)C)[C@H](NC(=O)OC(C)(C)C)C(=O)O (stereo not given in full) | 27.3 µM (inactive) | 82.6 µM (inactive) | 33 µM (inactive) | 26.6 µM (inactive) | 27.5 µM (inactive) | – | 30.4 µM (inactive) | 19.8 µM (inactive) | 57.3 µM (inactive) | 40.3 µM (inactive) | 21.6 µM (inactive) | 57.1 µM (inactive) | – | 50 µM (inactive) | – | 55.6 µM (inactive) |
| CC(O)c1cc2c(s1)C(=O)c1c(C(C)O)csc1C2=O (stereo not given) | 0.0113 µM (active) | 0.21 µM (active) | 0.0561 µM (active) | 0.117 µM (active) | 0.0573 µM (active) | 0.264 µM (active) | 0.401 µM (active) | 0.123 µM (active) | 0.249 µM (active) | 0.382 µM (active) | 0.0233 µM (active) | 0.318 µM (active) | 0.075 µM (active) | 0.185 µM (active) | 0.21 µM (active) | 0.0451 µM (active) |
